Entries after “also recorded” stand apart in the source; their conditions may differ.
Tests used:
[1] = test system: neonatal rat cardiomyocytes; conditions: neonatal rat cardiomyocytes cultures; cited from earlier work
[2] = test system: 5LO mRNA; assay: rtPCR of 5LO mRNA in adult rat cardiomyocytes; format: cell-based
Description: Cardiac myocytes were isolated from adult Sprague-Dawley rats (250-300 g, male). Animals were heparinized (1,000-2,000 units i.p.) 5 min before being anesthetized with ketamine (100 mg/kg) and xylazine (10 mg/kg), and the hearts were removed and placed in ice-cold heart media solution (in mmol/l: 112 NaCl, 5.4 KCl, 1 MgCl2, 9 NaH2PO4, and 11.1 D-glucose; supplemented with 10 HEPES, 30 taurine, 2 DL-carnitine, and 2 creatine, pH. 7.4). The hearts were perfused retrogradely in a Langendorff apparatus with Ca^2+-free heart media for 5 min at 5 ml/min at 37° C., followed by perfusion with Ca^2+-free heart media containing collagenase II, 210 U/mg (Worthington, Lakewood, N.J.) for 20 min. After perfusion, both ventricles were removed from the heart and minced in collagenase II-containing heart media for 10-15 min. The cell solution was then washed several times to remove collagenase II and reexposed to 1.2 mM Ca2^+ over 25 min to produce Ca2^+-tolerant cardiac myocytes. Myocytes were then plated in 4% FBS on laminin (2 μg/cm^2)-coated plates for 1 h and incubated at 37° C. in 5% CO2 for 12-24 h before experiments (21). Cells were incubated with 1) vehicle (0.07% ethanol); 2) PIO (10 μM)+ATV (10 μM); 3) H-89 (0.1 μM); or 4) PIO+ATV+H-89 for 12 hours. The supernatants were collected directly for LTB4 analyses by ELISA and the cells were harvested for immunoblotting. In addition, cells were plated in 8-chamber slides, received the same treatment as above and were used for immunohistochemical staining.
Equal amounts of total cellular RNA were reverse-transcribed with oligo(dT) primer by use of AMV Reverse Transcriptase (Applied Biosystems). Transcribed cDNAs (40 ng) were used for Real Time PCR with specific primers: rat ALOX5. […] The Ct (threshold cycle) is defined as the number of cycles required for the fluorescence signal to exceed the detection threshold. Expression of the ALOX5 relative to the GAPDH was calculated as the different between the threshold values of these two genes. […]

[3] = test system: 5LO (Ser523 phosphorylated 5LO); assay: immunoblotting of total 5LO and P-5LO in rat myocardium (whole cell homogenate); format: in vivo
Description: (§1) Rats received: 1) PIO (10 mg/kg/d); 2) ATV (10 mg/kg/d); 3) PIO (10 mg/kg/d)+H89 (20 mg/kg); 4) ATV (10 mg/kg/d)+H89 (20 mg/kg); 5) H89 (20 mg/kg) or 6) water alone (control). PIO and ATV were suspended in water and administered by gastric gavage once daily for 3 days; H-89 was dissolved in DMSO (final concentration 5% v/v) and injected intraperitoneally on the third day. Rats in groups 5 and 6 received water by gastric gavage once daily for 3 days. Rats in groups 1, 2 and 6 received intraperitoneal inkection of DMSO 5%. Sixteen hours after the injection, rats were euthanized and the hearts explanted for further analyses. In another experiment, rats received 3-day pretreatment with: 1) water (sham); 2) PIO (10 mg/kg/d); 3) ATV (10 mg/kg/d); 4) PIO (10 mg/kg/d)+ATV (10 mg/kg/d); or 5) LPS (10 mg/kg).
PIO and ATV were administered by oral gavage once daily as above; LPS was administered intravenously. In addition, rats in groups 1-4 received intravenous saline on the […], whereas rats in group 1 and 5 received water by gastric gavage once daily for 3 days and the LPS injection on the third day. Sixteen hours after the injection, rats were euthanized and the hearts explanted for further analyses.
The hearts were rapidly explanted, rinsed in cold PBS (pH 7.4), containing 0.16 mg/ml heparin to remove red blood cells and clots, frozen in liquid nitrogen and stored at −70° C. Myocardial samples from the anterior left ventricular wall were homogenized in RIPA lysis buffer (Santa Cruz Biotechnology, Santa Cruz, Calif.) and centrifuged at 14,000 rpm for 15 min at 4° C. The supernatant was collected and the total protein concentration was determined using the Lowry protein assay. […] The protein samples with loading buffer were run in 4-20% Tri-HCl Ready Gel at a 100V for 2 h until the desired molecular weight bands were separated. After electrophoresis, the gel was equilibrated in transfer buffer (25 mM Tris, 193 mM glycine, 0.1% SDS and 10% methanol) and the proteins were transferred to nitrocellulose membrane. The protein signals were quantified by an image-scanning-densitometer and the strength of each protein signal was normalized to the corresponding b-actin stain signal. Data are expressed as a ratio between the protein and the corresponding b-actin signal density.

[4] = test system: 5LO interaction with COX2 / cPLA2; assay: co-immunoprecipitation of 5LO with COX2 and cPLA2 in rat hearts; format: in vivo
Description: as §1
For co-immunoprecipitation, myocardial cytosolic, membranous and nuclear fractions (500 μg) were incubated with anti-5LO antibodies for 4 h followed by overnight incubation at 4° C. with Protein-A-Agarose. The agarose beads were collected by centrifugation and SDS/PAGE Western immunoblotting was performed with the supernatant fraction. The anti-5LO precipitates were subjected to immunoblotting with anti-COX2 or anti-cPLA2 antibodies.

[5] = test system: 5LO; assay: immunoblotting of 5LO in cytosolic, membranous and nuclear fractions of myocardial cells; format: in vivo; conditions: rat myocardium
Description: Rats received: 1) […] (20 mg/kg) or 6) water alone (control). PIO and ATV were suspended in water and administered by gastric gavage once daily for 3 days; H-89 was dissolved in DMSO (final concentration 5% v/v) and injected intraperitoneally on the third day. Rats in groups 5 and 6 received water by gastric gavage once daily for 3 days. Rats in groups 1, 2 and 6 received intraperitoneal inkection of DMSO 5%. Sixteen hours after the injection, rats were euthanized and the hearts explanted for further analyses. In another experiment, rats received 3-day pretreatment with: 1) […]); or 5) LPS (10 mg/kg). Myocardial samples (0.25 g) were homogenized, mixed with Buffer A Mix [Hepes (pH 7.9) 10 mM, KCl 10 mM, EDTA 10 mM, DTT 100 mM, protease inhibitor cocktail, and IGEPAL 10%, (Sigma, St Lois, Mo.)], homogenized again and incubated for 15 min on ice, and centrifuged at 850×g for 10 min at 4° C. The supernatant was discharged, Buffer A Mix was added again and the samples incubated for an additional 15 min on ice, and centrifuged at 15,000×g for 3 min at 40 C. The supernatant contains the cytosolic fraction was collected. The pellet was resuspended in 150 μl of Buffer B Mix [Hepes (pH 7.9) 20 mM, NaCl 0.4M, EDTA 1 mM, glycerol 10%, protease inhibitor cocktail, and IGEPAL 10%], the tubes were shaked on ice at 200 rpm for 2 h, centrifuged at 15,000×g for 5 min at 4° C., and supernatants were collected as the nuclear fraction. […] The hearts were rapidly explanted, rinsed in cold PBS (pH 7.4), containing 0.16 mg/ml heparin to remove red blood cells and clots, frozen in liquid nitrogen and stored at -70° C. Myocardial samples from the anterior left ventricular wall were homogenized in RIPA lysis buffer (Santa Cruz Biotechnology, Santa Cruz, Calif.) and centrifuged at 14,000 rpm for 15 min at 4° C. The supernatant was collected and the total protein concentration was determined using the Lowry protein assay. […] The protein samples with loading buffer were run in 4-20% Tri-HCl Ready Gel at a 100V for 2 h until the desired molecular weight bands were separated. After electrophoresis, the gel was equilibrated in transfer buffer (25 mM Tris, 193 mM glycine, 0.1% SDS and 10% methanol) and the proteins were transferred to nitrocellulose membrane. The protein signals were quantified by an image-scanning-densitometer and the strength of each protein signal was normalized to the corresponding b-actin stain signal. Data are expressed as a ratio between the protein and the corresponding b-actin signal density.

[6] = test system: rat infarct model; assay: rat infarct model, infarct size; format: in vivo; conditions: ATV 2 mg/kg/d, cilostazol 20 mg/kg/d, alone or combined
Description: The effects of cilostazol (Pletal) and atorvastatin on myocardial protection was measured in a rat infarct model. Pletal is a phosphodiesterase III inhibitor, thus increasing intracellular cAMP levels. cAMP activates PKA. ATV at 2 mg/kg/d had no effect. Cilostazol 20 mg/kg/d reduced infarct size. However, when combined with ATV 2 mg/kg/d the effect was much greater. There are 8 rats in the control and ATV 2 mg/kg/d groups and 6 rats in the cilostazol and the combination groups. Infarct size in the ATV 2 mg/kg/d (30.48±1.46%) is not different from the controls (33.97±2.76%).

[7] = whole cell homogenate, PIO or ATV 10 mg/kg/d 3 days, H-89 20 mg/kg i.p.

CC(C)c1ccc2c(c1)c(SC(C)(C)C)c(CC(C)(C)C(=O)O)n2Cc1ccc(Cl)cc1 [MK886]
calcium ionophore (A23187) induction of reactive oxygen species [1]: prevented

CCc1ccc(CCOc2ccc(CC3SC(=O)NC3=O)cc2)nc1 (centres unmarked) [PIO, 5-[[4-[2-(5-ethylpyridin-2 yl)ethoxy]phenyl]methyl]thiazolidine-2,4-dione]
5LO mRNA levels in the cardiomyocytes [2]: did not affect | 5LO phosphorylation, PIO and ATV compared with LPS ([3]; PIO, ATV 10 mg/kg/d, LPS 10 mg/kg i.v.): significantly greater increase | myocardial levels of Ser523 phosphorylated 5LO (P-5LO) [3, 7]: augment; also recorded: increased | myocardial total 5LO levels [3, 7]: without detectable change; also recorded: did not affect | fraction in which the co-immunoprecipitation with 5LO occurred ([4]; cytosolic and membranous fractions): in the cytosolic, but not the membranous fraction; also recorded: only in the cytosolic fraction | co-immunoprecipitation of COX2 or cPLA2 with 5LO ([4]; whole cell lysate): 5LO precipitated with COX2 and COX2, but not cPLA2, precipitated with 5LO | 5LO levels in the cytosolic fraction [5]: small, yet significant increase | 5LO levels in the membranous fraction [5]: no detectable effect

O=C1CCc2cc(OCCCCc3nnnn3C3CCCCC3)ccc2N1 [cilostazol]
Infarct size [6]: 15.47±1.61% | effect on infarct size (in words) [6]: reduced

Source: patent US20090042849A1, “Phosphorylation of 5-lipoxygenase at ser523 and uses thereof” (priority 2006, published 2009)
